Assays:
Format in all cases: cell-based
[1] = test system: BT20 (human breast carcinoma); experiment: Cytotoxicity assay (CCK8), BT20; settings: BT20 cells
Protocol: (§1) Cells were cultured according to the supplier´s instructions (ATCC technologies, A-549 (CCL-185), BT-20 (HTB-19), SKOV3 (HTB-77), HCT116 (CCL-247), MRC5 (CCL-171). Cells were seeded in 96-well plates at a density of 2–2.5 × 10^3 cells per well and incubated overnight in 0.1 mL of media supplied with 10% Fetal Bovine Serum (Lonza) in 5% CO2 incubator at 37°C. On day 2, drugs were added and samples were incubated for 48 h. After treatment, 10 µL of cell counting kit-8 was added into each well for additional 2 h incubation at 37°C. The absorbance of each well was determined by an Automatic Elisa Reader System at 450 nm wavelength.

[2] = test system: A549 (carcinomic human alveolar basal epithelial cells); experiment: Cytotoxicity assay (CCK8), A549; settings: 48 h
Protocol: as §1

[3] = test system: SKOV3 (human ovarian carcinoma); experiment: Cytotoxicity assay (CCK8), SKOV3; settings: SK-OV-3, SKOV3 cells, 48 h
Protocol: as §1

[4] = test system: HCT-116 (human colorectal carcinoma); experiment: Cytotoxicity assay (CCK8), HCT116; settings: HCT116 cells, 48 h
Protocol: as §1

[5] = test system: MRC-5 (non-malignant lung fibroblasts); experiment: Cytotoxicity assay (CCK8), MRC5; settings: Homo sapiens, MRC5 non-cancerous cells, 48 h
Protocol: as §1

Structure (SMILES)	IC50 ([1]; Homo sapiens, BT-20, 48 h)	IC50 [2]	IC50 [3]	IC50 [4]	IC50 [5]	IC50 ([1]; 48 h)
CCC(C#N)O/C=C/C(=O)OC (stereo not shown) [Compound 1E]	7.07 ± 1.28 µM	> 50 µM	2.92 ± 0.28 µM	> 50 µM	> 50 µM	
CCC(C#N)O/C=C\C(=O)OC (stereo not shown) [Compound 1Z]	> 50 µM	> 50 µM	> 50 µM	> 50 µM	> 50 µM	
CCCCCCC(C#N)O/C=C/C(=O)OC (stereo not shown) [Compound 2E]	15.8 ± 2.9 µM	> 50 µM	41.6 ± 2.46 µM	> 50 µM	> 50 µM	
CCCCCCC(C#N)O/C=C\C(=O)OC (stereo not shown) [Compound 2Z]	17.3 ± 3.44 µM	> 50 µM	> 50 µM	> 50 µM	> 50 µM	
CCCOC(=O)/C=C/OC(C#N)c1ccccc1 (stereo not shown) [Compound 3E, Propyl (E)-3-(cyano(phenyl)methoxy)acrylate]		> 50 µM	> 50 µM	> 50 µM	> 50 µM	
CCCOC(=O)/C=C\OC(C#N)c1ccccc1 (stereo not shown) [Compound 3Z, Propyl (Z)-3-(cyano(phenyl)methoxy)acrylate]		> 50 µM	> 50 µM	> 50 µM	> 50 µM	
CC(C)OC(=O)/C=C/OC(C#N)c1ccccc1 (stereo not shown) [Compound 4E, Isoropyl (E)-3-(cyano(phenyl)methoxy)acrylate]		> 50 µM	> 50 µM	> 50 µM	> 50 µM	
CC(C)OC(=O)/C=C\OC(C#N)c1ccccc1 (stereo not shown) [Compound 4Z, Isoropyl (Z)-3-(cyano(phenyl)methoxy)acrylate]		> 50 µM	> 50 µM	> 50 µM	> 50 µM	
COC(=O)/C=C/OC(C#N)c1ccccc1 (stereo not shown) [Compound 5E]	8.31 ± 1.26 µM	18.9 ± 1.2 µM	3.84 ± 1.56 µM	> 50 µM	> 50 µM	
COC(=O)/C=C\OC(C#N)c1ccccc1 (stereo not shown) [Compound 5Z]	19.9 ± 3.42 µM	> 50 µM	29.8 ± 2.09 µM	> 50 µM	> 50 µM	
COC(=O)/C=C/OC(C#N)c1ccc(OC)cc1 (stereo not shown) [Compound 6E]	27.8 ± 5.31 µM	> 50 µM	12.4 ± 1.18 µM	> 50 µM	> 50 µM	
COC(=O)/C=C\OC(C#N)c1ccc(OC)cc1 (stereo not shown) [Compound 6Z]	12.6 ± 1.76 µM	> 50 µM	31.3 ± 4.42 µM	> 50 µM	> 50 µM	
COC(=O)/C=C/OC(C#N)c1ccc(C(F)(F)F)cc1 (stereo not shown) [Compound 7E]	10 ± 2.17 µM	29.3 ± 1.1 µM	2.62 ± 0.53 µM	> 50 µM	> 50 µM	
COC(=O)/C=C\OC(C#N)c1ccc(C(F)(F)F)cc1 (stereo not shown) [Compound 7Z]	> 50 µM	> 50 µM	> 50 µM	> 50 µM	> 50 µM	
COC(=O)/C=C/OC(C#N)c1ccc(F)cc1 (stereo not shown) [Compound 8E]		> 50 µM	> 50 µM	> 50 µM	> 50 µM	
COC(=O)/C=C\OC(C#N)c1ccc(F)cc1 (stereo not shown) [Compound 8Z]		> 50 µM	> 50 µM	> 50 µM	> 50 µM	
COC(=O)/C=C/OC(C#N)c1ccc(C)cc1 (stereo not shown) [Compound 9E]	4.98 ± 2.77 µM	21.4 ± 0.83 µM	8.08 ± 2.08 µM	> 50 µM	> 50 µM	
COC(=O)/C=C\OC(C#N)c1ccc(C)cc1 (stereo not shown) [Compound 9Z]	20.2 ± 3.78 µM	> 50 µM	> 50 µM	> 50 µM	> 50 µM	
COC(=O)/C=C/OC(C#N)c1cccs1 (stereo not shown) [Compound 10E]		> 50 µM	> 50 µM	> 50 µM	> 50 µM	
COC(=O)/C=C\OC(C#N)c1cccs1 (stereo not shown) [Compound 10Z]		> 50 µM	> 50 µM	> 50 µM	> 50 µM	
COC(=O)/C=C/OC(C#N)c1cc2ccccc2c2ccccc12 (stereo not shown) [Compound 12E]	9.89 ± 0.25 µM	9.89 ± 0.25 µM	7.35 ± 1.42 µM	16.1 ± 1.2 µM	14.4 ± 0.86 µM	7 ± 1.96 µM
COC(=O)/C=C\OC(C#N)c1cc2ccccc2c2ccccc12 (stereo not shown) [Compound 12Z]	11.9 ± 1.1 µM	> 50 µM	11.9 ± 1.88 µM	> 50 µM	> 50 µM	
